Laboratory results as given in US20020155443A1, “Metal binding DNA interactive compounds” (priority 2000, published 2002).

Assays:
Format in all cases: cell-based
[1] = test system: B16 murine melanoma cells; experiment: Growth inhibition of B16 murine melanoma cells, MTT assay; details: B16 melanoma cells; read-out: IC50, growth inhibition
Description: (§1) The growth inhibitory activities of bis(propargylic) sulfone crown ethers 2.47 and 2.48 against B16 murine melanoma cells were determined calorimetrically with an MTT assay conducted by the Institute for Drug Development at the Cancer Research and Therapy Center in San Antonio, Tex.

human cancer cell lines = experiment: Growth inhibition across the human cancer cell line panel (overall statement); details: wide range of human cancer cell lines, in words
Description: as §1
(§2) The growth inhibitory activity of propargylic sulfone 3.2 against a wide range of human cancer cell lines was determined calorimetrically with sulforhodamine B assay conducted by the National Cancer Institute of the National Institutes of Health.
(§3) The in vitro cytotoxicity of compounds 2.47, 2.48 and 3.2 were investigated using the DTP Human Tumor Cell Line Screen. The concept, rationale and history of development of the DTP Human Tumor Cell Line Screen were described by Boyd (1993;1997)^8.4, 8.6 and Boyd and Paull (1995)^8.5. Further technical details of the NCI screening procedures were described (Monks, et. al.)^8.2 as were the origins and processing of the cell lines (Alley, et. al., Shoemaker, et. al., Stinson, et. al.). Briefly, cell suspensions that were diluted according to the particular cell type and the expected target cell density (5000-40,000 cells per well based on cell growth characteristics) were added by pipet (100 μL) into 96-well microtiter plates. Inoculates were allowed a preincubation period of 24 h at 37° C. for stabilization. Dilutions at twice the intended test concentration were added at time zero in 100-μL aliquots to the microtiter plate wells. Usually, test compounds were evaluated at five 10-fold dilutions. In routine testing, the highest well concentration is 10E-4 M, but for the standard agents the highest well concentration used depended on the agent. Incubations lasted for 48 h in 5% CO2 atmosphere and 100% humidity. The cells were assayed by using the sulforhodamine B assay (Rubinstein, et. al., Skehan, et. al.). A plate reader was used to read the optical densities, and a microcomputer processed the optical densities into the special concentration parameters.

MALME-3M = experiment: DTP Human Tumor Cell Line Screen, sulforhodamine B assay; details: Melanoma, 48 h
Description: as §2, §3

U251 = experiment: as above; details: 48 h
Description: as §2, §3

K-562 = experiment: as above; details: 48 h
Description: as §2, §3

HOP-92 = experiment: as above; details: Non-Small Cell Lung Cancer, 48 h
Description: as §2, §3

MDA-N = experiment: as above; details: Breast Cancer, 48 h
Description: as §2, §3

IGROV1 = experiment: as above; details: 48 h
Description: as §2, §3

HCT-116 = experiment: as above; details: Colon Cancer, 48 h
Description: as §2, §3

LOX IMVI = experiment: as above; details: Melanoma, 48 h
Description: as §2, §3

SNB-75 = experiment: as above; details: CNS Cancer, 48 h
Description: as §2, §3

PC-3 = experiment: as above; details: Prostate Cancer, 48 h
Description: as §2, §3

T-47D = experiment: as above; details: Breast Cancer, 48 h
Description: as §2, §3

ACHN = experiment: as above; details: Renal Cancer, 48 h
Description: as §2, §3

A498 = experiment: as above; details: Renal Cancer, 48 h
Description: as §2, §3

SR = experiment: as above; details: Leukemia, 48 h
Description: as §2, §3

M14 = experiment: as above; details: Melanoma, 48 h
Description: as §2, §3

RPMI-8226 = experiment: as above; details: Leukemia, 48 h
Description: as §2, §3

Row | Structure (SMILES) | IC50 [1] | growth inhibitory properties against human cancer cell lines (human cancer cell lines) | IC50 (MALME-3M) | IC50 (U251; CNS Cancer) | IC50 (K-562; Leukemia) | IC50 (HOP-92) | IC50 (MDA-N) | IC50 (IGROV1; Ovarian Cancer) | IC50 (HCT-116) | IC50 (LOX IMVI) | IC50 (SNB-75) | IC50 (PC-3) | IC50 (T-47D) | IC50 (ACHN) | IC50 (A498) | IC50 (SR) | also measured
1 | O=S1(=O)CC#CCOCCOCCOCCOCCOCCOCC#CC1 [Compound 2.47] | 54.2 µM | display growth inhibitory properties | 2.7 µM | 16.9 µM | 11.2 µM | 10.9 µM | 14.2 µM | 16.3 µM | 8.1 µM | 11.1 µM | 19.9 µM | 18.6 µM | 20.6 µM | 13.5 µM | 16.9 µM | 8.2 µM | –
2 | O=S1(=O)CC#CCOCCOCCOCCOCCOCCOCCOCC#CC1 [Compound 2.48] | 44.7 µM | display growth inhibitory properties | 14.6 µM | 18.3 µM | 23.9 µM | 19.6 µM | 18.9 µM | 44.6 µM | 15.3 µM | 19.9 µM | 32.6 µM | 43.4 µM | 24.5 µM | 22.4 µM | 54.7 µM | 18.9 µM | IC50 (M14): 16.9 µM; IC50 (RPMI-8226): 17.4 µM
3 | O=C(OCC1COCCOCCOCCOCCO1)c1ccc(CS(=O)(=O)CC#CCO)cc1 (centres unmarked) [Compound 3.2] | – | modest growth inhibitory properties | – | – | – | – | – | – | – | – | – | – | – | – | – | – | IC50 (MALME-3M; Homo sapiens): > 100 µM; IC50 (U251; Homo sapiens, U-251, CNS Cancer): 69 µM; IC50 (K-562; Homo sapiens, K562, Leukemia): 37 µM; IC50 (M14; Homo sapiens): > 100 µM; IC50 (HOP-92; Homo sapiens): 41.6 µM; IC50 (MDA-N; Homo sapiens): 37.4 µM; IC50 (IGROV1; Homo sapiens, IGROV-1, Ovarian Cancer): > 100 µM; IC50 (RPMI-8226; Homo sapiens): 8.4 µM; IC50 (HCT-116; Homo sapiens): > 100 µM; IC50 (LOX IMVI; Homo sapiens): 54.3 µM; IC50 (SNB-75; Homo sapiens): > 100 µM; IC50 (PC-3; Homo sapiens): > 100 µM; IC50 (ACHN; Homo sapiens): > 100 µM; IC50 (A498; Homo sapiens): > 100 µM; IC50 (SR; Homo sapiens): > 100 µM
